PMC4457528, “Identification of Novel Small Molecule Inhibitors of Oncogenic RET Kinase” (PLoS ONE, 2015)
Read-outs that look alike come from different tables or passages of the source.

Tests used:
Test in all cases: KinomeScan kinase panel, single concentration 10 µM
Type in all cases: binding
KinomeScan kinase panel [1] = target: T1, KinomeScan kinase panel (Homo sapiens, UniProt Q13153); conditions: PAK1, 10 µM; read-out: score (%)
T1 construct: purchased DiscoveRx (KinomeScan)

KinomeScan kinase panel [2] = target: T2, KinomeScan kinase panel (Homo sapiens, UniProt Q00537); conditions: PCTK2, 10 µM; read-out: score (%)
T2 construct: purchased DiscoveRx (KinomeScan)

KinomeScan kinase panel [3] = target: T3, KinomeScan kinase panel (Homo sapiens, UniProt P36888, D835Y); conditions: FLT3(D835Y), 10 µM; read-out: score (%)
T3 construct: purchased DiscoveRx (KinomeScan)
T3 sequence (P36888 27-993 D835Y): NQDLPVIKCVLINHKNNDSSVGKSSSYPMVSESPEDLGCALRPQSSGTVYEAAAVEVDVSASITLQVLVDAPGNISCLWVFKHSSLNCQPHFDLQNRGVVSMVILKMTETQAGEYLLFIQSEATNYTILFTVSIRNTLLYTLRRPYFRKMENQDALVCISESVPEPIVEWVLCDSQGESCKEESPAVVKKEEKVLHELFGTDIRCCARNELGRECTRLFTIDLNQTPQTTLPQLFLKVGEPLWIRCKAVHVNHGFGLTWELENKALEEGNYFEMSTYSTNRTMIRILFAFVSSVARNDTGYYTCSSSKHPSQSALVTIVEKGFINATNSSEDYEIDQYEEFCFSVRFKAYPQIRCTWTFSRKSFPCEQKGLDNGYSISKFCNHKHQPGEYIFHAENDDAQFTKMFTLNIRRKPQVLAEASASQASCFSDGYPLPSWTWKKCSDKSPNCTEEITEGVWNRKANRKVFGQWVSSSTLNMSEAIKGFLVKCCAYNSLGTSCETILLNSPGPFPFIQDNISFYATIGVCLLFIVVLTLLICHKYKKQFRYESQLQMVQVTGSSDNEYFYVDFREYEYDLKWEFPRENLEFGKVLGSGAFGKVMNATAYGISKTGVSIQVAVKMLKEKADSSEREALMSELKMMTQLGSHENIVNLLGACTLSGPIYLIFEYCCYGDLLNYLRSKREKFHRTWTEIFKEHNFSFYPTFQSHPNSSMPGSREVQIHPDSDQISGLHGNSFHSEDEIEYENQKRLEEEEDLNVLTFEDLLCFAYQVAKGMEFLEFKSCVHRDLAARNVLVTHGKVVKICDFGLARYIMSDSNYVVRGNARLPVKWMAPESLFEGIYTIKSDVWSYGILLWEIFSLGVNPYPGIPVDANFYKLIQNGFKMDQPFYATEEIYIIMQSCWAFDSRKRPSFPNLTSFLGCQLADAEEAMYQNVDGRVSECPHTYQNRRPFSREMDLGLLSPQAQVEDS

KinomeScan kinase panel [4] = target: T4, KinomeScan kinase panel (Homo sapiens, UniProt Q13882); conditions: read-out: score (%)
T4 construct: purchased DiscoveRx (KinomeScan)

KinomeScan kinase panel [5] = target: T5, KinomeScan kinase panel (Homo sapiens, UniProt P53355); conditions: DAPK1, 10 µM; read-out: score (%)
T5 construct: purchased DiscoveRx (KinomeScan)

KinomeScan kinase panel [6] = target: T6, KinomeScan kinase panel (Homo sapiens, UniProt Q7L7X3); conditions: read-out: score (%)
T6 construct: purchased DiscoveRx (KinomeScan)
T6 sequence (Q7L7X3 1-1001): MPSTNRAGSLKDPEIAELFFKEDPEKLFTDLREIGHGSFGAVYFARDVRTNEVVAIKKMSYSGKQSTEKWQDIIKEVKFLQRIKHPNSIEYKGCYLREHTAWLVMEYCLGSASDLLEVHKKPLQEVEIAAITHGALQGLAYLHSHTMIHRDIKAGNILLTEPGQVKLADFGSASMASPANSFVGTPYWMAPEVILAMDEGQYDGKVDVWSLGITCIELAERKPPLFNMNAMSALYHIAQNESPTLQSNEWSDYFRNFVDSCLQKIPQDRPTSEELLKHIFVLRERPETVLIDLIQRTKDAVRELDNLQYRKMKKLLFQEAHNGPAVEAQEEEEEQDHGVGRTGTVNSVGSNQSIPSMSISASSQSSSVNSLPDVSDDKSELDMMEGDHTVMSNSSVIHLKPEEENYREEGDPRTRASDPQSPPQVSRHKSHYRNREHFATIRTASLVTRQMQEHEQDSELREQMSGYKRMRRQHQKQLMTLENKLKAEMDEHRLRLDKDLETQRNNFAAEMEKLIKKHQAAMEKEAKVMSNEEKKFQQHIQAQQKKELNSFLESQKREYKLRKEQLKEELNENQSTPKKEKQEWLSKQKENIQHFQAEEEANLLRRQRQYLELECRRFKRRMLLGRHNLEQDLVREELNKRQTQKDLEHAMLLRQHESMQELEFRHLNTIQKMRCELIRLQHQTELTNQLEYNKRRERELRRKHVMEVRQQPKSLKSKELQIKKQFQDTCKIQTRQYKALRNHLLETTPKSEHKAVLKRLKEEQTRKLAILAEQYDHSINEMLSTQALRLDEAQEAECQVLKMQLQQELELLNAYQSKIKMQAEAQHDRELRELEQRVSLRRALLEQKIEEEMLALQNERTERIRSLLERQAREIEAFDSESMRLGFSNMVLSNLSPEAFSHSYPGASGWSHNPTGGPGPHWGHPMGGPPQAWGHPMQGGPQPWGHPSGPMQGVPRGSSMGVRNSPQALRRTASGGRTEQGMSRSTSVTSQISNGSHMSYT

KinomeScan kinase panel [7] = target: T7, KinomeScan kinase panel (Homo sapiens, UniProt O75582); conditions: 10 µM, read-out: score (%)
T7 construct: purchased DiscoveRx (KinomeScan)

KinomeScan kinase panel [8] = target: T8, KinomeScan kinase panel (Homo sapiens, UniProt P49761); conditions: CLK3, 10 µM; read-out: score (%)
T8 construct: purchased DiscoveRx (KinomeScan)

KinomeScan kinase panel [9] = target: T9, KinomeScan kinase panel (Homo sapiens, UniProt P08069); conditions: IGF1R, 10 µM; read-out: score (%)
T9 construct: purchased DiscoveRx (KinomeScan)

[10] = kinase RPS6KA5(Kin.Dom.1-N-terminal)
[11] = kinase RPS6KA5(Kin.Dom.2-C-terminal)

T2 sequence (Q00537 whole entry): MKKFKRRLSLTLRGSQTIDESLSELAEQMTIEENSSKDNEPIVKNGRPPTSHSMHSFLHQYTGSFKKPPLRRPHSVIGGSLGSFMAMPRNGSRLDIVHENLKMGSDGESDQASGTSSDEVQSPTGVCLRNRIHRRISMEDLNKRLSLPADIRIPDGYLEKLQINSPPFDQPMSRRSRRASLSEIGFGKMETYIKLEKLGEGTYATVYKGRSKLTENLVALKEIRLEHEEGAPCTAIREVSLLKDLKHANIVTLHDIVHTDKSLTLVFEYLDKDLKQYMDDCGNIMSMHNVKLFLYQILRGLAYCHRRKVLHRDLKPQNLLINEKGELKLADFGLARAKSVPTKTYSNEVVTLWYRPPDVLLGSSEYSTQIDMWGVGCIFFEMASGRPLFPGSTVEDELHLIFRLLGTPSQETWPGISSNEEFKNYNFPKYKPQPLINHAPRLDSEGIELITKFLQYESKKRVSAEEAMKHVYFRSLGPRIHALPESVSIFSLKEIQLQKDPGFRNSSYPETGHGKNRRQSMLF
T9 sequence (P08069 31-1367): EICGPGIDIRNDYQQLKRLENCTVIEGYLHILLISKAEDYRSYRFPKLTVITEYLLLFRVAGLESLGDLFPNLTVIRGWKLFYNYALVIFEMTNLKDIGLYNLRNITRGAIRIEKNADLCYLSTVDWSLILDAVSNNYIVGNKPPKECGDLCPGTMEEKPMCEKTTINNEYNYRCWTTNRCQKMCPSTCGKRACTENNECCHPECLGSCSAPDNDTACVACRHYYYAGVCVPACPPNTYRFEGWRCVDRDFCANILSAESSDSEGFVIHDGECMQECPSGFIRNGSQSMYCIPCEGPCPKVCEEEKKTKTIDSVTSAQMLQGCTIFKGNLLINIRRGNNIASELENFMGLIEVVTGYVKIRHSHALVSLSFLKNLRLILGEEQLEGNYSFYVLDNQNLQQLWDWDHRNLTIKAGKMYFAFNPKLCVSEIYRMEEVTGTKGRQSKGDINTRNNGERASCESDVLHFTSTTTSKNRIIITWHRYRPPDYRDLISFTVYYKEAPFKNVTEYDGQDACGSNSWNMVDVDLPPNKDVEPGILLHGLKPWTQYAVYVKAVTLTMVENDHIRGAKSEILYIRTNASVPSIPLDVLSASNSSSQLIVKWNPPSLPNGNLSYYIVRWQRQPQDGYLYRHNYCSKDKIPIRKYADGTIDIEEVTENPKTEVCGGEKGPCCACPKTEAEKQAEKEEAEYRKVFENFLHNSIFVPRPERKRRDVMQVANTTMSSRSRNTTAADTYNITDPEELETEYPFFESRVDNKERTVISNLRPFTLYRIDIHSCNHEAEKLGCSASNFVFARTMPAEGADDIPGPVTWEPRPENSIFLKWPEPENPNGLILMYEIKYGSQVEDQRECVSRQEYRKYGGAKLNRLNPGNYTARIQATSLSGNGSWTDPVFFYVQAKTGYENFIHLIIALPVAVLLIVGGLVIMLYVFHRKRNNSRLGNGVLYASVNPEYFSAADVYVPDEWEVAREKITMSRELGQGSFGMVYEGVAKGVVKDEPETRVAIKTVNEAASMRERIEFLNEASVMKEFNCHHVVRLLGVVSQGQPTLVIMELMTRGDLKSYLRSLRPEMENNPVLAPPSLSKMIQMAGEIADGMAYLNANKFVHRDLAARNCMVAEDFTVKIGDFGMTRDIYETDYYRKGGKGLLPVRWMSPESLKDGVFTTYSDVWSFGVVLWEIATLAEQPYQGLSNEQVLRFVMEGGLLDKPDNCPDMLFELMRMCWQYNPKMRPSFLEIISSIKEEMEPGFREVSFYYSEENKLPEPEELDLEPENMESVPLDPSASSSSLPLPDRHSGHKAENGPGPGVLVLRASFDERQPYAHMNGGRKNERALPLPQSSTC
T4 sequence (Q13882 whole entry): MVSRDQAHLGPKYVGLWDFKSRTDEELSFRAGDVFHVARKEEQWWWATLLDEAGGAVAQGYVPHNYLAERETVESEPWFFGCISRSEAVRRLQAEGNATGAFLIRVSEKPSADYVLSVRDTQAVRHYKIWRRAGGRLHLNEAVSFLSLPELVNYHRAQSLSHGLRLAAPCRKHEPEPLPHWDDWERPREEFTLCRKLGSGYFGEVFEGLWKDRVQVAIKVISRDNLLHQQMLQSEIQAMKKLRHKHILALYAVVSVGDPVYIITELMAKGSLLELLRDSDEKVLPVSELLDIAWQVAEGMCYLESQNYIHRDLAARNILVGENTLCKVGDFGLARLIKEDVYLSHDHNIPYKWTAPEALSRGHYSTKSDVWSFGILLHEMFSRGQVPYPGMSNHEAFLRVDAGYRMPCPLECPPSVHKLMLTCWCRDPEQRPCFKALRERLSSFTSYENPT
T5 sequence (P53355 whole entry): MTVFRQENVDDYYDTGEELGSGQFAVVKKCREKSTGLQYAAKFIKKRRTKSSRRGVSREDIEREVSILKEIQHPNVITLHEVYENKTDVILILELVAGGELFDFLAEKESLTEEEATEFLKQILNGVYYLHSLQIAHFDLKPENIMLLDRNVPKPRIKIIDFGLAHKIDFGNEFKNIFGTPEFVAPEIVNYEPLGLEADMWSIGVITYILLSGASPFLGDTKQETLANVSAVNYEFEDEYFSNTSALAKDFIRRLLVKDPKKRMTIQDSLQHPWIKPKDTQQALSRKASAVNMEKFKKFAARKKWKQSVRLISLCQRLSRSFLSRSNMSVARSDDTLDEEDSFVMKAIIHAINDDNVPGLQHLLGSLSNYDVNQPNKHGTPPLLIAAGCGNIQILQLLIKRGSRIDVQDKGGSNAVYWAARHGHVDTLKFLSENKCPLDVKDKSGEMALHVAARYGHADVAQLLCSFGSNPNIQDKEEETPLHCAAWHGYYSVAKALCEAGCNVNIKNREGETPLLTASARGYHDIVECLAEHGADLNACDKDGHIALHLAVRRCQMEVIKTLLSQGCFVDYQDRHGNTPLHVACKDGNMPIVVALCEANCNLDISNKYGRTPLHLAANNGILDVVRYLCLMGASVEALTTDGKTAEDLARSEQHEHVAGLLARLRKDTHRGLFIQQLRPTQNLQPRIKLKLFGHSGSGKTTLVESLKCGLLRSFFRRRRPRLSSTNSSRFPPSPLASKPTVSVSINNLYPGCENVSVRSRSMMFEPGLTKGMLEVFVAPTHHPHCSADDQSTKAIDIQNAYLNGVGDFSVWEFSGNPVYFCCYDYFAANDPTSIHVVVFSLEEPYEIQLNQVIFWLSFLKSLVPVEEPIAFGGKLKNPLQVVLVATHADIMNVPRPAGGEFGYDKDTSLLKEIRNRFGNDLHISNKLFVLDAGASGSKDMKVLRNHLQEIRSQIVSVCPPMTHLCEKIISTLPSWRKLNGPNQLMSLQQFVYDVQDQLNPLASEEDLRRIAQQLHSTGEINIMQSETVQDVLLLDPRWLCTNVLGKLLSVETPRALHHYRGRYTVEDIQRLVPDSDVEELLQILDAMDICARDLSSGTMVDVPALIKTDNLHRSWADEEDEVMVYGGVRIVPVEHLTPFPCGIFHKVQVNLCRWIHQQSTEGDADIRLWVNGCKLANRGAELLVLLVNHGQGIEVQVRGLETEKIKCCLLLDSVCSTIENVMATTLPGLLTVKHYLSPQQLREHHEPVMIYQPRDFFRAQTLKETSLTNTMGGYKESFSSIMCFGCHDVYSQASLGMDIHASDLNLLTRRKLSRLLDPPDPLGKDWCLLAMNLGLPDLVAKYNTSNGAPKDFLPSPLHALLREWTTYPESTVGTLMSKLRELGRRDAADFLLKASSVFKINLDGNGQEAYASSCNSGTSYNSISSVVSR
T8 sequence (P49761 whole entry): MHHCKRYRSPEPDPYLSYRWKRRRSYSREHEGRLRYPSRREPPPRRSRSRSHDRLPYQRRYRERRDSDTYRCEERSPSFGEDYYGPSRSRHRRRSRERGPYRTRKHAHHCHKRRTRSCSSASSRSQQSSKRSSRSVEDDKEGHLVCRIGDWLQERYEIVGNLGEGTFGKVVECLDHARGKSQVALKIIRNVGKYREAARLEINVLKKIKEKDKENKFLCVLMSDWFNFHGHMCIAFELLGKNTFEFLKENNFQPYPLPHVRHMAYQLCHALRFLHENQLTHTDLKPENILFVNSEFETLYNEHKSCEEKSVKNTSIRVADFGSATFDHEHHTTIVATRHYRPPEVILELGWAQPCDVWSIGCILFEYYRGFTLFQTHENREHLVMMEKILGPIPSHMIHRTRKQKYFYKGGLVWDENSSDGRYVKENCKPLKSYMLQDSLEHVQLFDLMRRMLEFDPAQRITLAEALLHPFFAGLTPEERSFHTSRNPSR
T7 sequence (O75582 whole entry): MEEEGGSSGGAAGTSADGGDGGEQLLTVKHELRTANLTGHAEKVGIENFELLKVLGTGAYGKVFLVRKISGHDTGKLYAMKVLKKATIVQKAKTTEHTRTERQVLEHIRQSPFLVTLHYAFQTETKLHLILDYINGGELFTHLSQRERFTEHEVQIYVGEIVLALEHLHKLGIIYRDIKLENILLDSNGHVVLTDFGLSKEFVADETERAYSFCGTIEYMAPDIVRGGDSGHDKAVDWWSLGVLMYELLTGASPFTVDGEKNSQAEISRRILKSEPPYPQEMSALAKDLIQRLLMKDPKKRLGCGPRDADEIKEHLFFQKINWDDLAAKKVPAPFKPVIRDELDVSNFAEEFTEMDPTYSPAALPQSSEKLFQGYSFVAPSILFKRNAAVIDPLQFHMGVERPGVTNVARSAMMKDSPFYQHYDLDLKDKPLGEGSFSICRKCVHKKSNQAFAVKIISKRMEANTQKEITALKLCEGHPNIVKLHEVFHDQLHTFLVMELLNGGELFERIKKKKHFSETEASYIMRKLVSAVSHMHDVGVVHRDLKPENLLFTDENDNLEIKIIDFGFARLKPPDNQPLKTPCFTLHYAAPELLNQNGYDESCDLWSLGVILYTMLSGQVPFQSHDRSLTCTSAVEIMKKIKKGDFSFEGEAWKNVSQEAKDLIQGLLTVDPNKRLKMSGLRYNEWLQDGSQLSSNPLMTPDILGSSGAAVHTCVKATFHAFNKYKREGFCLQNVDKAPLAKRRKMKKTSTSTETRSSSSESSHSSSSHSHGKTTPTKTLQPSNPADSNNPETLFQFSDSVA

remaining binding at 10 µM (KinomeScan kinase panel [4]; PTK6, 10 µM) [%] | remaining binding at 10 µM (KinomeScan kinase panel [6]; TAOK1, 10 µM) [%] | remaining binding at 10 µM (KinomeScan kinase panel [7]; RPS6KA5(Kin.Dom.1)) [%] | remaining binding at 10 µM (KinomeScan kinase panel [7]; RPS6KA5(Kin.Dom.2)) [%] | Compound | remaining binding at 10 µM (KinomeScan kinase panel [1]) [%] | remaining binding at 10 µM (KinomeScan kinase panel [2]) [%] | remaining binding at 10 µM (KinomeScan kinase panel [3]) [%] | remaining binding at 10 µM (KinomeScan kinase panel [4]; BRK, 10 µM) [%] | remaining binding at 10 µM (KinomeScan kinase panel [5]) [%] | remaining binding at 10 µM (KinomeScan kinase panel [6]; kinase TAOK1, 10 µM) [%] | remaining binding at 10 µM (KinomeScan kinase panel [7]; [10]) [%] | remaining binding at 10 µM (KinomeScan kinase panel [7]; [11]) [%] | remaining binding at 10 µM (KinomeScan kinase panel [8]) [%] | remaining binding at 10 µM (KinomeScan kinase panel [9]) [%]
– | – | – | – | CCN1CCN(Cc2ccc(NC(=O)c3ccc(C)c(NC(=O)c4cncc(-c5cccs5)c4)c3)cc2C(F)(F)F)CC1 [ALW-II-41-27] | > 30 | > 30 | 3.3 | 8.2 | > 30 | > 30 | 11 | > 30 | > 30 | > 30
17 | 6.5 | > 30 | > 30 | CCN1CCN(Cc2ccc(NC(=O)c3ccc(C)c(/C=C/c4cnc5[nH]ccc5c4Cl)c3)cc2C(F)(F)F)CC1 [HG-6-63-01, (E)-3-(2-(4-chloro-1H-pyrrolo[2,3-b]pyridin-5-yl)vinyl)-N-(4-((4-ethylpiperazin-1-yl)methyl)-3-(trifluoromethyl)phenyl)-4-methylbenzamide] | > 30 | > 30 | 0.85 | – | > 30 | – | – | – | > 30 | > 30
– | – | – | – | CCN1CCN(Cc2ccc(NC(=O)c3ccc(C)c(C#Cc4cccnc4)c3)cc2C(F)(F)F)CC1 [XMD15-44] | 81 | 8.2 | 0.5 | 2.8 | > 30 | 0.25 | 59 | 100 | > 30 | > 30
